From US7442693B2, “Diazepine compounds as ligands of the melanocortin 1 and/or 4 receptors” (SmithKline Beecham Corporation, priority 2004, dated 2008)

What was measured:
human MC4R = molecular target: T1, human MC4R (Homo sapiens, UniProt P32245); assay: CHO-6xCRE-luc+ reporter gene assay, MC4R agonist activity; type: cell-based; settings: for Emax: 4 h, percentage of the fold stimulation in the NDP-αMSH control (1×10^−7 M), human MC4R, read-out: % Max MSH; for EC50: CHO-6xCRE-luc+ cells expressing human MC4R, 4 h at 37° C., luciferase activity
T1 construct: expressed in transfected cells; host or cells: CHO-6xCRE-luc+ reporter cell line
Description: (§1) CHO-6×CRE-luc^+ reporter cell lines expressing human MC1R, MC3R, MC4R, and MC5R (GenBank accession numbers X65634, L06155, S77415 and U08353) and the CHO host reporter gene cell line were propagated in complete medium in T225 flasks. Forty-eight hours prior to assay, cells were harvested with 2 ml of 0.05% trypsin, washed with complete medium and plated at a concentration of 4000 cells/well in complete medium. Sixteen hours prior to the assay, the medium was removed from the cells and replaced with 90 μl/well of serum-free DMEM/F12. At the time of the assay the compounds were added in a 10 μl volume and plates were incubated for 4 h at 37° C. in a cell culture incubator. The medium was aspirated followed by the addition of 50 μl of a 1:1 mixture of LucLite™ and dPBS containing 1 mM CaCl2 and 1 mM MgCl2. The plates were then sealed and subjected to dark adaptation at room temperature for 10 min before luciferase activity was quantitated on a TopCount™ microplate scintillation counter (Packard) using 3 s/well count time. The NDP-αMSH and 154N-5 concentration-response curve data were expressed as a percentage of the fold stimulation in the NDP-αMSH control for each receptor subtype. The control value is the average of duplicate wells treated with 1×10^−7 M NDP-αMSH.

human MC1R = molecular target: T2, human MC1R (Homo sapiens, UniProt Q01726); assay: CHO-6xCRE-luc+ reporter gene assay, MC1R agonist activity; type: cell-based; settings: for Emax: 4 h, read-out: % of MSH
T2 construct: expressed in transfected cells; host or cells: CHO-6xCRE-luc+ reporter cell line
Description: as §1

[1] = percentage of the fold stimulation in the NDP-αMSH control (1×10^−7 M), human MC1R
[2] = CHO-6xCRE-luc+ cells expressing human MC1R, 4 h at 37° C., luciferase activity

T2 sequence (Q01726 whole entry): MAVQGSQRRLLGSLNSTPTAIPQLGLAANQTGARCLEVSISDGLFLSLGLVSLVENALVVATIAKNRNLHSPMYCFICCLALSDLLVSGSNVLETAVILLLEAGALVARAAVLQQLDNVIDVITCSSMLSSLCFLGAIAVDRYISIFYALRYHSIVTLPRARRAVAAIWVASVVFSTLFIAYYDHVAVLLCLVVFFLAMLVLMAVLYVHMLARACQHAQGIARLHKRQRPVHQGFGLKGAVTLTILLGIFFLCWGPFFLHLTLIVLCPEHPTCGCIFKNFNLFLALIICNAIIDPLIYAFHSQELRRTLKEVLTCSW
T1 sequence (P32245 whole entry): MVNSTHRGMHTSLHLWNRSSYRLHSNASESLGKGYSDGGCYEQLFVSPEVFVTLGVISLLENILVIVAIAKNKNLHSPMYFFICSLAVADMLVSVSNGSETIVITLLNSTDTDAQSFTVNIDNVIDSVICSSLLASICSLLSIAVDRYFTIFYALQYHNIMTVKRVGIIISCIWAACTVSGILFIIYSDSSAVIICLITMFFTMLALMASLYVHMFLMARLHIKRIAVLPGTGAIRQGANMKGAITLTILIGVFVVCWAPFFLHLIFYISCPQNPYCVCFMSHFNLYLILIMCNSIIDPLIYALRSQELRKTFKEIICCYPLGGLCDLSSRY

SMILES | Emax (human MC4R) [%] | EC50 (human MC4R) [nM] | Emax (human MC1R; [1]) [%] | EC50 (human MC1R; [2]) [nM] | pEC50 (human MC1R; [2]) | % of MSH (human MC1R; [1]) [%]
COc1ccc(N(C(=O)CN2C=CN(c3ccccc3)C(=O)C(Cc3n[nH]c4ccccc34)C2=O)C(C)C)cc1 (single isomer, unassigned) [Example 2] | 51 | 282 | 85 | 18.6 | – | –
O=C1C(Cc2n[nH]c3ccccc23)C(=O)N(c2ccccc2)C=CN1CC(=O)N1CCCCc2ccccc21 (single isomer, unassigned) [Example 18] | – | – | 87 | 1.58 | – | –
CC(C)N(C(=O)CN1C=CN(c2ccccc2)C(=O)C(Cc2n[nH]c3cc(F)ccc23)C1=O)c1ccccc1 (single isomer, unassigned) [Example 21] | – | – | 79 | 35.5 | – | –
O=C1C(Cc2n[nH]c3ccccc23)C(=O)N(c2ccccc2)C=CN1CC(=O)N1CCCCc2ccccc21 (single isomer, unassigned) [Example 24] | – | – | – | – | 8.80 | 86
COc1ccc(N(C(=O)CN2C=CN(c3ccccc3)C(=O)C(Cc3n[nH]c4ccccc34)C2=O)C(C)C)cc1 (stereo not shown) [Example 1] | 56 | 417 | 68 | 29.5 | – | –
CC(C)N(C(=O)CN1C=CN(c2ccccc2)C(=O)C(Cc2n[nH]c3ccccc23)C1=O)c1ccc(Cl)cc1 (stereo not shown) [Example 3] | 58 | 42.7 | 73 | 112 | – | –
Cc1cc(OC(F)(F)F)ccc1N(C(=O)CN1C=CN(c2ccccc2)C(=O)C(Cc2n[nH]c3ccccc23)C1=O)C(C)C (stereo not shown) [Example 4] | 52 | 44.7 | 74 | 70.8 | – | –
COC1(Cc2n[nH]c3ccccc23)C(=O)N(CC(=O)N(c2ccc(F)cc2)C(C)C)C=CN(c2ccccc2)C1=O (stereo not shown) [Example 5, 2-[2,4-dioxo-3-(1H-indazol-3-ylmethylene)-3-methoxy-5-phenyl-2,3,4,5-tetrahydro-1H-1,5-diazepin-1-yl]-N-(4-fluorophenyl) N-isopropylacetamide] | 78 | 151 | – | – | – | –
CC(C)N(C(=O)CN1C=CN(c2ccccc2)C(=O)C(Cc2n[nH]c3ccccc23)C1=O)c1ccc(OC(F)(F)F)cc1 (stereo not shown) [Example 6] | 51 | 204 | 91 | 22.4 | – | –
COc1cccc2c1CCCCN2C(=O)CN1C=CN(c2ccccc2)C(=O)C(Cc2n[nH]c3ccccc23)C1=O (stereo not shown) [Example 7] | 77 | 347 | 50 | 40.7 | – | –
CCc1ccc(N(C(=O)CN2C=CN(c3ccccc3)C(=O)C(Cc3n[nH]c4ccccc34)C2=O)C(C)C)cc1 (stereo not shown) [Example 8] | 53 | 347 | 72 | 148 | – | –
CCCc1ccc(N(C(=O)CN2C=CN(c3ccccc3)C(=O)C(Cc3n[nH]c4ccccc34)C2=O)C(C)C)cc1 (stereo not shown) [Example 9] | 65 | 389 | 37 | 200 | – | –
CC(C)N(C(=O)CN1C=CN(c2ccccc2)C(=O)C(Cc2n[nH]c3ccccc23)C1=O)c1ccc(I)cc1 (stereo not shown) [Example 10] | 49 | 398 | 84 | 72.4 | – | –
CC(C)N(C(=O)CN1C=CN(c2ccccc2)C(=O)C(Cc2n[nH]c3ccccc23)C1=O)c1ccc(C(F)(F)F)cc1 (stereo not shown) [Example 11] | 55 | 417 | 68 | 145 | – | –
COc1ccc(N(C(=O)CN2C=CN(c3ccccc3)C(=O)C(Cn3c(=O)[nH]c4ccccc43)C2=O)C(C)C)cc1 (stereo not shown) [Example 12] | 56 | 437 | 61 | 19.5 | – | –
CCOc1ccc(N(C(=O)CN2C=CN(c3ccccc3)C(=O)C(Cc3n[nH]c4ccccc34)C2=O)C(C)C)cc1 (stereo not shown) [Example 13] | 65 | 513 | 64 | 110 | – | –

SMILES | Emax (human MC4R) [%] | EC50 (human MC4R) [nM] | Emax (human MC1R; [1]) [%] | EC50 (human MC1R; [2]) [nM] | pEC50 (human MC1R; [2]) | % of MSH (human MC1R; [1]) [%]
Cc1ccc(N(C(=O)CN2C=CN(c3ccccc3)C(=O)C(Cc3n[nH]c4ccccc34)C2=O)C(C)C)cc1 (stereo not shown) [Example 14] | – | – | 69 | 269 | – | –
O=C1C(Cc2n[nH]c3cc(F)ccc23)C(=O)N(c2ccccc2)C=CN1CC(=O)N1CCCCc2ccccc21 (stereo not shown) [Example 15] | – | – | 61 | 1.58 | – | –
O=C1C(Cc2n[nH]c3ccccc23)C(=O)N(c2ccccc2)C=CN1CC(=O)N1CCCCc2ccccc21 (stereo not shown) [Example 16] | – | – | 61 | 1.58 | – | –
COc1ccc(N(C(=O)CN2C=CN(c3ccccc3)C(=O)C(Cc3n[nH]c4cc(F)ccc34)C2=O)C(C)C)cc1 (stereo not shown) [Example 17] | – | – | 83 | 1.58 | – | –
CC(C)N(C(=O)CN1C=CN(c2ccccc2)C(=O)C(Cc2n[nH]c3cc(F)ccc23)C1=O)c1ccc(F)cc1 (stereo not shown) [Example 19] | – | – | 53 | 14.1 | – | –
CC(C)N(C(=O)CN1C=CN(c2ccccc2)C(=O)C(Cc2n[nH]c3cc(F)ccc23)C1=O)c1ccccc1 (stereo not shown) [Example 20] | – | – | 51 | 191 | – | –
CC(C)N(C(=O)CN1C=CN(c2ccccc2)C(=O)C(Cc2n[nH]c3ccccc23)C1=O)c1ccc(F)cc1 (stereo not shown) [Example 22] | – | – | 54 | 50.1 | – | –
CCCN(C(=O)CN1C=CN(c2ccccc2)C(=O)C(Cc2n[nH]c3ccccc23)C1=O)c1ccc(OC)cc1 (stereo not shown) [Example 23] | – | – | 72 | 51.3 | – | –
CCN(C(=O)CN1C=CN(c2ccccc2)C(=O)C(Cc2n[nH]c3ccccc23)C1=O)c1ccc(OC)cc1 (stereo not shown) [Example 25] | – | – | 72 | 64.6 | – | –
CC(C)Oc1ccc(N(C(=O)CN2C=CN(c3ccccc3)C(=O)C(Cc3n[nH]c4ccccc34)C2=O)C(C)C)cc1 (stereo not shown) [Example 26] | – | – | 41 | 74.1 | – | –
COc1ccc(N(C(=O)CN2C=CN(c3ccccc3)C(=O)C(Cc3n[nH]c4c3CCCC4)C2=O)C(C)C)cc1 (stereo not shown) [Example 27] | – | – | 95 | 129 | – | –
CC(C)N(C(=O)CN1C=CN(c2ccccc2)C(=O)C(Cc2n[nH]c3ccccc23)C1=O)c1ccc(O)cc1 (stereo not shown) [Example 28] | – | – | 79 | 158 | – | –
COc1ccc(N(C(=O)CN2C=CN(c3ccccc3)C(=O)C(Cn3cnc4ccccc43)C2=O)C(C)C)cc1 (stereo not shown) [Example 29] | – | – | 103 | 182 | – | –
CC1CCc2ccccc2N1C(=O)CN1C=CN(c2ccccc2)C(=O)C(Cc2n[nH]c3ccccc23)C1=O (stereo not shown) [Example 30] | – | – | 69 | 204 | – | –
CC(C)c1ccc(N(C(=O)CN2C=CN(c3ccccc3)C(=O)C(Cc3n[nH]c4ccccc34)C2=O)C(C)C)cc1 (stereo not shown) [Example 31] | – | – | 40 | 224 | – | –
CC(C)N(C(=O)CN1C=CN(c2ccccc2)C(=O)C(Cc2n[nH]c3ccccc23)C1=O)c1ccccc1 (stereo not shown) [Example 32] | – | – | 54 | 295 | – | –
